Here are results for 36 compounds from patent US6344564B1, “Fungicidal 2-imidazolin-5-ones and 2-imidazoline-5-thiones” (priority 1992, dated 2002).

Each structure is given as a SMILES string.

In one series the test system is Phytophthora infestans. It is filed as in vivo. The following applies: concentration at which 75% inhibition of the disease is observed; tomato seedlings (Marmande) sprayed 24 hours before infection with Phytophthora infestans spores; read seven days after infecting vs controls.
The next series relates to Pythium vexans. Briefly: In vitro test on PDA medium, Pythium vexans. Particulars: Phytopythium vexans, 120 h, read-out: degree of inhibition of the fungus.
A further series deals with Pythium rostratum. Briefly: In vitro test on PDA medium, Pythium rostratum. The following applies: Globisporangium rostratum, 120 h, read-out: degree of inhibition of the fungus.
Another series deals with Alternaria alternata. Briefly: In vitro test on PDA medium, Alternaria alternata. Particulars: 120 h, read-out: degree of inhibition of the fungus.
Series [1] relates to Helminthosporium gramineum. Briefly: In vitro test on PDA medium, Helminthosporium gramineum. In kind it is cell-based. The following applies: 120 h, dose of 20 ppm in PDA medium, 5 days at 20° C., compared with control dish, read-out: degree of inhibition of the fungus.
Another series deals with Plasmopara viticola. Briefly: In vivo test on Plasmopara viticola (grape downy mildew). The following applies: in Vitis vinifera, 168 h, read-out: protection.
Another series deals with Puccinia recondita. Briefly: In vivo test on Puccinia recondita (brown rust of wheat). The following applies: read-out: protection.

Method for Alternaria alternata: (§1) Each test is carried out in the following way: a nutrient medium consisting of potato, glucose and gelose (PDA medium) is introduced in the supercooled state into a series of Petri dishes (100 ml per dish) after sterilization in an autoclave at 120° C.
(§2) While filling the dishes, an acetone solution of the active material is injected into the supercooled medium to obtain the desired final concentration.
(§3) After 24 hours, each dish is cultured by depositing a fragment of ground mycelium arising from a previous culture of the same fungus.
(§4) For each compound tested, the degree of inhibition of the fungus studied is thus determined for a dose of 20 ppm.
Method for Pythium rostratum: as §1, §2, §3, §4
Method for Pythium vexans: as §1, §2, §3, §4

For `CSC1=N[C@@](C)(c2ccc(F)cc2)C(=O)N1Nc1ccccc1` [Compound 511], in the series on Phytophthora infestans, the “IC75 (ppm)” value was 12-37 ppm.

With `COC1=NC(C)(c2ccc(Br)cc2)C(=O)N1Nc1ccccc1` (racemic) [505 + 506], the “IC75 (ppm)” value in the series with Phytophthora infestans is reported as greater than 1000 ppm. The compound `CSC1=NC(C)(c2ccccc2)C(=O)N1N(C)c1ccccc1` (stereo not drawn) [Compound 22, 4-methyl-1-(N-methyl-N-phenylamino)-2-methylthio-4-phenyl-2-imidazolin-5-one] gave a melting point of 124 °C. In the series with Pythium vexans, the inhibition at 20 ppm is 80 to 100%. Also, the inhibition at 20 ppm with Pythium rostratum is 80 to 100%. In addition, the inhibition at 20 ppm in the series on Alternaria alternata lay in the range of 80 to 100%.

In the case of `CSC1=NC2(CCc3ccccc32)C(=O)N1Nc1ccccc1` (stereo not drawn) [Compound 98], the melting point was 85 °C. Consider `CSC1=NC(C)(c2ccccc2)C(=S)N1Nc1ccccc1` (stereo not drawn) [Compound 1, 4-methyl-2-methylthio-4-phenyl-1-phenylamino-2-imidazoline-5-thione], for which the melting point turned out to be 127 °C. Regarding `CSC1=NC(C)(c2cccnc2)C(=O)N1Nc1ccccc1` (stereo not drawn), the melting point is 156 °C. As for `CSC1=NC(C)(c2ccc(F)cc2)C(=O)N1Nc1ccccc1` (racemic) [511 + 512], in the series with Phytophthora infestans, the “IC75 (ppm)” value came out at 110 ppm.

In turn, `CCC1(c2ccccc2)N=C(SC)N(Nc2ccccc2)C1=O` (stereo not drawn) [Compound 48, 4-ethyl-2-methylthio-4-phenyl-1-phenylamino-2-imidazolin-5-one] came in with a melting point of 147 °C. Consider `COC1=NC(C)(c2ccc(F)cc2)C(=O)N1Nc1ccccc1` (racemic) [525 + 526], for which the “IC75 (ppm)” value in the series with Phytophthora infestans is on record as 110 ppm. `COC1=N[C@@](C)(c2ccccc2)C(=O)N1Nc1ccccc1` [Compound 503, (+)-(4S)-4-methyl-2-methoxy-4-phenyl-1-phenylamino-2-imidazolin-5-one]: the melting point was found to be 132 °C. For the same compound, in the series on Phytophthora infestans, the “IC75 (ppm)” value came out at 110 ppm.

Take `CSC1=NC2(CCCc3ccccc32)C(=O)N1Nc1ccccc1` (stereo not drawn) [Compound 97]: the melting point was determined as 158 °C. With `CSC1=N[C@@](C)(c2ccccc2)C(=O)N1Nc1ccccc1` [Compound 501, (+)-(4S)-4-methyl-2-methylthio-4-phenyl-1-phenylamino-2-imidazolin-5-one], in the series with Phytophthora infestans, the “IC75 (ppm)” value was determined as 37 ppm. `CSC1=NC2(CCCc3ccccc32)C(=O)N1Nc1ccc(Cl)cc1` (stereo not drawn) gave a melting point of 191 °C. With `CSC1=NC2(CCCc3ccccc32)C(=O)N1Nc1ccccc1C` (stereo not drawn), the melting point amounted to 174 °C. Same read-out and setting: in the case of `CSC1=NC(C)(Cc2ccccc2)C(=O)N1Nc1ccccc1` (stereo not drawn) it was 166 °C.

On to `CSC1=NC(C)(c2ccccc2)C(=O)N1Nc1ccccc1` (stereo not drawn) [Compound 9, 4-methyl-2-methylthio-4-phenyl-1-phenylamino-2-imidazolin-5-one], for which the inhibition at 20 ppm (in series [1]; in the series on Pythium vexans; with Pythium rostratum) was 80 to 100% in each case. `COC1=NC2(CCc3ccccc32)C(=O)N1Nc1ccccc1` (stereo not drawn) [Compound 410]: the pest or weed control at 1000 µg/mL in the series with Plasmopara viticola and in the series on Puccinia recondita was no less than 75% in each case. In the case of `CSC1=NC2(CCCc3ccccc32)C(=O)N1Nc1ccccc1Cl` (stereo not drawn) [Compound 104], the melting point is 168 °C. Take `CSC1=N[C@@](C)(c2ccc(F)cc2)C(=O)N1Nc1cccc(F)c1` [Compound 513]: the “IC75 (ppm)” value with Phytophthora infestans is recorded as 37 ppm.

For the compound `CSC1=NC(C)(c2ccc(F)cc2)C(=O)N1Nc1cccc(F)c1` (racemic) [513 + 514], the “IC75 (ppm)” value in the series on Phytophthora infestans came out at 110 ppm. Regarding `COC1=NC(C)(c2cccs2)C(=O)N1Nc1ccccc1` (stereo not drawn) [Compound 486], the pest or weed control at 1000 µg/mL in the series on Plasmopara viticola and in the series on Puccinia recondita was no less than 75% each time. Turning to `COC1=NC(C)(c2ccc(F)cc2)C(=O)N1Nc1ccccc1` (single isomer, unassigned) [Compound 525], the “IC75 (ppm)” value in the series with Phytophthora infestans came out at 37 ppm. `COC1=NC(C)(c2ccc(Br)cc2)C(=O)N1Nc1ccccc1` (stereo not drawn) [Compound 505] yielded a melting point of 202 °C. In the series on Phytophthora infestans, the “IC75 (ppm)” value amounted to 37 ppm.

In the case of `COC1=NC(C)(c2ccccc2)C(=O)N1Nc1ccccc1` (stereo not drawn) [Compound 504], the melting point is 132 °C. The “IC75 (ppm)” value in the series with Phytophthora infestans is greater than 1000 ppm. Consider `COC1=NC(C)(c2ccccc2)C(=O)N1Nc1ccccc1` (racemic) [503 + 504], for which the “IC75 (ppm)” value in the series with Phytophthora infestans came to 330 ppm. As to `COC1=NC(C)(c2ccc(F)cc2)C(=O)N1Nc1ccccc1` (single isomer, unassigned) [Compound 526], the “IC75 (ppm)” value in the series with Phytophthora infestans is greater than 1000 ppm.

`CSC1=NC(c2ccccc2)C(=O)N1Nc1ccccc1` (stereo not drawn) yielded a melting point of 190 °C. As for `CSC1=NC(C)(c2ccccc2)C(=O)N1Nc1ccccc1` (racemic) [501 + 502], the “IC75 (ppm)” value in the series with Phytophthora infestans is recorded as 110 ppm. As to `CSC1=NC(C)(c2ccccc2)C(=O)N1Nc1ccccc1` (stereo not drawn) [Compound 502], the “IC75 (ppm)” value with Phytophthora infestans is greater than 1000 ppm. With `COC1=NC(C)(c2ccc(F)cc2)C(=O)N1Nc1cccc(F)c1` (single isomer, unassigned) [Compound 527], the “IC75 (ppm)” value in the series with Phytophthora infestans is 4-12 ppm. Take `COC1=NC(C)(c2ccc(Br)cc2)C(=O)N1Nc1ccccc1` (stereo not drawn) [Compound 506]: the “IC75 (ppm)” value in the series on Phytophthora infestans is greater than 1000 ppm. As for `CSC1=NC(C)(c2ccccc2)C(=O)N1Cc1ccccc1` (stereo not drawn) [Compound 34, 1-benzyl-4-methyl-2-methylthio-4-phenyl-2-imidazolin-5-one], the inhibition at 20 ppm with Pythium vexans and in the series with Pythium rostratum was 80 to 100% in each case. With `COC1=NC(C)(c2ccc(F)cc2)C(=O)N1Nc1cccc(F)c1` (racemic) [527 + 528], in the series with Phytophthora infestans, the “IC75 (ppm)” value is on record as 37 ppm. For `COC1=NC2(CCCc3ccccc32)C(=O)N1Nc1ccccc1` (stereo not drawn) [Compound 407], the pest or weed control at 1000 µg/mL with Plasmopara viticola and in the series with Puccinia recondita was no less than 75% each time. Regarding `CC1=NC(C)(c2ccccc2)C(=O)N1Nc1ccccc1` (stereo not drawn) [Compound 201, 2,4-dimethyl-4-phenyl-1-phenylamino-2-imidazolin-5-one], the melting point turned out to be 135 °C.

In the case of `CSC1=NC(C)(c2ccccc2)C(=O)N1N(C(C)=O)c1ccccc1` (stereo not drawn) [Compound 23, 4-methyl-1-(N-acetyl-N-phenylamino)-2-methylthio-4-phenyl-2-imidazolin-5-one], the melting point turned out to be 132 °C.

One may read the melting point as the temperature of the solid-liquid transition. What is called inhibition is the share of the control response that was lost under treatment.
